# Measured values taken from the SangsterLogP compilation.
# Key:
# [1] = method code SF, from DOI: 10.1016/0006-2952(79)90295-8, PMID: 36087
# [2] = method code SF, from Wang, L.; Li, H.; Wang, X.; Zhang, Z. (1993). Determination of aqueous solubilities and partition coefficients of substitutive ethylketone congeners by generator column. Huanjing Huaxue, 12(2)151-154.
# [3] = method code SF-HPLC, from DOI: 10.1023/a:1015902024664, PMID: 2235895; conditions: pH 7.0
# [4] = method code SF-RC, from DOI: 10.1002/ps.2780410303
# [5] = not given; remark: listed apart in the source
# [6] = method code SF-HPLC, from DOI: 10.1023/a:1011018730459, PMID: 11451042
# [7] = method code SF-RC, from DOI: 10.1021/jf60186a044, PMID: 4688915
# [8] = method code SF, from PMID: 7274411
# [9] = method code SF-HPLC, from DOI: 10.1016/0378-5173(90)90303-l; conditions: pH 7.4
# [10] = method code SF, from Yoshimoto, M. (1982). Quantitative structure-activity relationships and structure patterns of drugs. SankyoÌ„ KenkyuÌ„jo nenpoÌ„ (Annual report of Sankyo Research Laboratories), 34, 1-38.
# [11] = method code SF-AS, from DOI: 10.1021/jm00040a014, PMID: 8035429; conditions: pH 7.4
# [12] = method code SF, from DOI: 10.1016/0168-3659(92)90078-6; conditions: pH 7.0
# [13] = not given; remark: listed apart in the source
# [14] = method code SF, from PMID: 25193232; conditions: pH 7.4
# [15] = method code SF-HPLC, from DOI: 10.1016/0378-5173(89)90028-8
# [16] = not given; remark: listed apart in the source
# [17] = method code SF-AS, from DOI: 10.1135/cccc19831077; conditions: pH 3.5
# [18] = method code SF-AS, from DOI: 10.1016/j.bmc.2004.10.037, PMID: 15653345
# [19] = not given; remark: listed apart in the source
# [20] = method code SF, from DOI: 10.1007/bf01610114, PMID: 6839039
# [21] = method code SF-HPLC, from DOI: 10.1016/0378-5173(90)90181-3; conditions: pH 7.4
# [22] = method code SF-HPLC, from DOI: 10.1080/01483919108049396; conditions: pH 7.0
# [23] = method code SF-HPLC, from DOI: 10.1039/a702469j; conditions: pH 7.0
# [24] = not given; remark: listed apart in the source
# [25] = method code SF-AS, from DOI: 10.1016/s0969-8051(99)00063-3, PMID: 10628565; conditions: pH 7.0
smiles,measurement,setting,value
CNC(=O)COc1ccc(OCC(O)CNC(C)C)cc1 (stereo unspecified),logP,[1],0.56
OC1(c2cccc(I)c2)c2ccccc2C2=NCCN21 (stereo unspecified),logP,,2.3
O=C(CSc1ccccc1)c1ccccc1,logP,[2],1.88
CCCCCCCCCC(=O)OC[C@H]1O[C@@H](n2cc(C)c(=O)[nH]c2=O)C[C@@H]1N=[N+]=[N-],logD,[3],4.45
CCCCc1cnc(C2=NC(C)(C(C)C)C(=O)N2)c(C(=O)O)c1 (stereo unspecified),logD,[4]; pH 2.8,1.99
Cn1c(=O)nc(-c2ccccc2)c2cc(O)ccc21,logP,[5],1.72
CCCCC(=O)OCC1OC(n2cnc3c(NC4CCCC4)ncnc32)C(O)C1O (stereo unspecified),logP,[6],2.79
CSc1ccc(C(c2ccc(SC)cc2)C(Cl)(Cl)Cl)cc1,logP,[7],3.85
O=C1CN=C(c2ccccc2)c2cc([N+](=O)[O-])ccc2N1,logD,[8]; pH 8.0,2.06
CCOC(=O)c1cc(S(N)(=O)=O)c(Cl)cc1NCc1ccco1,logD,[9],2.67
CCC(C)SCC(=O)NC1(OC)C(=O)N2C(C(=O)O)=C(COC(N)=O)CSC21 (stereo unspecified),logP,[10],-1.38
COCc1cnc(C2=NC(C)(C(C)C)C(=O)N2)c(C(=O)O)c1 (stereo unspecified),logD,[4]; pH 2.5,0.47
CCOP(=O)(CC(=O)OCC1OC(n2ccc(N)nc2=O)CS1)OCC (stereo unspecified),logD,[11],0.48
CN1C(=O)CN=C(c2ccccc2F)c2cc([N+](=O)[O-])ccc21,logD,[8]; pH 4.0,2.05
OC[C@H]1O[C@@H](n2cnc3c(NC4CCCC4)ncnc32)[C@H](O)[C@@H]1O,logP,[6],1.21
CCCC(C)C(=O)OCC1CCC(n2cnc3c(O)ncnc32)O1 (stereo unspecified),logD,[12],1
CC(C)C(=O)OCC1CCC(n2cnc3c(O)ncnc32)O1 (stereo unspecified),logD,[12],0.02
COC1(NC(=O)CSc2nncs2)C(=O)N2C(C(=O)O)=C(COC(N)=O)CSC21 (stereo unspecified),logP,[10],-1.95
CC(=O)Nc1ccc(OCC(O)CNCC(O)COc2ccccc2)cc1 (stereo unspecified),logP,[13],1.39
O=C(NOCCO)c1ccn2cncc2c1Nc1ccc(I)cc1F,logD,[14],2.05
CCn1cc(C(=O)OCOC(=O)C(C)C)c(=O)c2ccc(C)nc21,logP,[15],2.17
CCN(CC)CCCC(C)Nc1c2ccc(Cl)cc2nc2ccc(OC)cc12 (stereo unspecified),logP,[16],5.09
O=C(O)Cc1ccc(OCc2ccccc2)c(Cl)c1,logD,[17],3.43
CNC(=O)COc1cccc(OCC(O)CNC(C)C)c1 (stereo unspecified),logP,[1],0.35
OC1(c2cccc(Br)c2)c2ccccc2C2=NCCN21 (stereo unspecified),logP,,1.97
CCC(=O)OCOC(=O)c1cn(CC)c2nc(C)ccc2c1=O,logP,[15],1.7
O=C(OCC1OC(n2cnc3c(NC4CCCC4)ncnc32)C(O)C1O)C1CCCCC1 (stereo unspecified),logP,[6],2.95
O=C(O)Cc1ccc(OCCCc2ccccc2)c(Cl)c1,logD,[17],3.9
O=C(CSc1ccccc1)c1ccc(Cl)cc1,logP,[2],2.69
O=C(NOC[C@H](O)CO)c1ncc2cncn2c1Nc1ccc(I)cc1F,logD,[14],1.1
Cn1c(=O)nc(-c2ccccc2)c2ccccc21,logP,[5],1.79
CC(=O)NCc1cccc(OCC(O)CNC(C)C)c1 (stereo unspecified),logP,[1],0.34
Cc1cc(CC(=O)O)ccc1OCc1ccccc1,logD,[17],3.37
CCCC(=O)OC[C@H]1O[C@@H](n2cc(C)c(=O)[nH]c2=O)C[C@@H]1N=[N+]=[N-],logD,[3],1.5
OCCN1CCN(Cc2ccc(O)c3ncccc23)CC1,logP,[18],0.54
CCC(=O)OCOC(=O)c1cc(S(N)(=O)=O)c(Cl)cc1NCc1ccco1,logD,[9],2.9
CCOCCOCCOc1ccc2c(c1)c(-c1ccccc1)nc(=O)n2C,logP,[5],1.84
Cc1cc(Cc2ccc(Cl)c(Cl)c2)c(Cl)cc1Cl,logP,[19],6.51
CC(C)(C)C(=O)OCC1CCC(n2cnc3c(O)ncnc32)O1 (stereo unspecified),logD,[12],0.6
OC(CNCC(O)COc1ccccc1)COc1ccccc1 (stereo unspecified),logP,[13],2.52
CCOP(=O)(OCC)C(=O)CCCCNc1ccn(C2CSC(CO)O2)c(=O)n1 (stereo unspecified),logD,[11],1.21
CCCCCC(=O)OC[C@H]1O[C@@H](n2cc(C)c(=O)[nH]c2=O)C[C@@H]1N=[N+]=[N-],logD,[3],2.45
C#CCN(C)Cc1ccc(O)c2ncccc12,logP,[18],1.92
Cc1ccc(SCC(=O)c2ccccc2)cc1,logP,[2],2.46
COC1(NC(=O)CSc2nc3c[nH]cnc-3n2)C(=O)N2C(C(=O)O)=C(COC(N)=O)CSC21 (stereo unspecified),logP,[10],-1.72
CC(C)OC(=O)c1ccccc1C(=O)OC(C)C,logP,[20],2.83
CC(C)COC(=O)c1ccccc1C(=O)OCC(C)C,logP,[20],4.11
Cc1cc(Cl)c(Cc2cc(Cl)ccc2Cl)cc1Cl,logP,[19],6.51
O=C(OCn1ncc2c(=O)[nH]cnc21)c1ccc(CN2CCOCC2)cc1,logD,[21],1.13
O=C(Nc1ccn(C2OC(CO)C(O)C2O)c(=O)n1)c1ccccc1 (stereo unspecified),logD,[22],0.3
CCN1CCN(Cc2ccc(OC)c(OC)c2OC)CC1,logP,[16],1.69
CCOP(=O)(OCC)C(C)(C)[N+]([O-])=Cc1ccc([N+](=O)[O-])cc1,logD,[23],1.43
CC(C)C1(C)N=C(c2ncc(Br)cc2C(=O)O)NC1=O (stereo unspecified),logD,[4]; pH 1.8,1.19
CCOP(=O)(OCC)C(C)(C)[N+]([O-])=Cc1ccccn1,logD,[23],0.68
CCn1cc(C(=O)OCOC(C)=O)c(=O)c2ccc(C)nc21,logP,[15],1.21
CCCCCOC(=O)c1ccccc1C(=O)OCCCCC,logP,[20],4.85
CC(O)CONC(=O)c1ncc2cncn2c1Nc1ccc(I)cc1F (stereo unspecified),logD,[14],2.2
Clc1ccc(C(Cn2ccnc2)OCc2ccsc2Cl)c(Cl)c1 (stereo unspecified),logP,[24],4.7
O=c1[nH]c(Nc2ccccc2)nc2c1ncn2C1CC(O)C(CO)O1 (stereo unspecified),logD,[25],0.4
CN1CCN(CCCN2c3ccccc3Sc3ccc(C(F)(F)F)cc32)CC1,logP,[16],4.71
O=C(OCn1ncc2c(=O)[nH]cnc21)c1cccc(Cn2ccnc2)c1,logD,[21],0.97
O=C(Nc1ncnc2c1ncn2[C@H]1C[C@H](O)[C@@H](CO)O1)c1ccccc1,logD,[22],0.22
CCOP(=O)(OCC)C(=O)OCC1OC(n2ccc(NC(C)=O)nc2=O)CS1 (stereo unspecified),logD,[11],0.65
CCOc1ccc(C(c2ccc(C)cc2)C(Cl)(Cl)Cl)cc1 (stereo unspecified),logP,[7],3.96
O=C(OCn1ncc2c(=O)[nH]cnc21)c1cccc(CN2CCOCC2)c1,logD,[21],1.12
CC(C)(C)NC[C@H](O)COc1nsnc1N1CCOCC1,logP,[13],1.98
Cc1cc(Cl)c(Cl)cc1Cc1ccc(Cl)cc1Cl,logP,[19],6.43
OC(Cn1ccnc1)(Cn1cncn1)c1ccc(Cl)cc1Cl (stereo unspecified),logP,[24],1.6
CCCCCCC(O)(Cn1ccnc1)c1ccc(Cl)cc1Cl (stereo unspecified),logP,[24],5.2
COc1ccc(C(c2ccc(SC)cc2)C(Cl)(Cl)Cl)cc1 (stereo unspecified),logP,[7],2.9
OC1(c2cccc(Cl)c2)c2ccccc2C2=NCCN21 (stereo unspecified),logP,,1.85
CCN(CC)C(=O)COC(=O)c1cc(S(N)(=O)=O)c(Cl)cc1NCc1ccco1,logD,[9],2.45
C/N=C1/CN(O)C(c2ccccc2)=c2cc(Cl)ccc2=N1,logD,[8]; pH 8.0,2.12
CCOP(=O)(OCC)C(C)(C)[N+]([O-])=Cc1ccc(Cl)cc1,logD,[23],2.44
O=C(Nc1ncnc2c1ncn2[C@@H]1O[C@H](CO)[C@@H](O)[C@H]1O)c1ccccc1,logD,[22],-0.1
CCOC(=O)C(CS)NCc1ccc(O)c2ncccc12 (stereo unspecified),logP,[18],0.21
